Assay results published in US11497212B2, “Substituted thiophenyl uracils, salts thereof and the use thereof as herbicidal agents” (Syngenta Crop Protection AG, priority 2017, dated 2022).

Tests used:
Format in all cases: in vivo
[1] = tested on: Glycine max; assay: Crop compatibility pre-emergence (greenhouse pot trial); details: application rate 80 g/ha, effect vs untreated controls
From the text: (§1) Seeds of mono- and dicotyledonous weeds and crop plants were laid out in plastic or organic plant pots and covered with soil. The compounds of the invention formulated in the form of wettable powders (WP) or emulsion concentrates (EC) were then applied to the surface of the covering soil as an aqueous suspension or emulsion with addition of 0.5% additive at a water application rate equivalent to 600 L/ha. After the treatment, the pots were placed in a greenhouse and kept under good growth conditions for the test plants. After about 3 weeks, the efficacy of the preparations was scored visually as a percentage by comparison with untreated controls. For example, 100% efficacy=plants have died, 0% efficacy=like control plants.
(§2) Crop compatibilities were also scored correspondingly.
(§3) The effects observed are reported here on selected crop plants by comparison with the untreated controls (values in %).

[2] = tested on: Zea mays; assay: as above; details: application rate 80 g/ha, effect vs untreated controls
From the text: as §1, §2, §3

[3] = tested on: Oryza sativa; assay: Crop compatibility post-emergence (greenhouse pot trial)
Method in brief: (§4)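 Compatibility is expressed as visually scored percent injury, where 0% means no difference from untreated controls and 100% means dead plants, assessed about 3 weeks after a foliar spray at 600 L/ha with 0.5% additive on one-leaf-stage pot plants in sandy loam.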

[4] = tested on: Pharbitis purpurea; assay: Herbicidal action pre-emergence (greenhouse pot trial); details: application rate 320 g/ha
From the text: as §1, with “control plants. Tables B1 to B16 below show the efficacies of selected compounds of the general formula (I) according to tables I.1 to I.60 on various harmful plants and an application rate corresponding to 320 g/ha or lower that were obtained by the aforementioned trial method.” for “control plants.”

[5] = tested on: Setaria viridis; assay: as above; details: application rate 320 g/ha, scored after about 3 weeks
From the text: as §1, with “control plants. Tables B1 to B16 below show the efficacies of selected compounds of the general formula (I) according to tables I.1 to I.60 on various harmful plants and an application rate corresponding to 320 g/ha or lower that were obtained by the aforementioned trial method.” for “control plants.”

[6] = tested on: Matricaria inodora; assay: as above; details: scored after about 3 weeks
From the text: as §1, with “control plants. Tables B1 to B16 below show the efficacies of selected compounds of the general formula (I) according to tables I.1 to I.60 on various harmful plants and an application rate corresponding to 320 g/ha or lower that were obtained by the aforementioned trial method.” for “control plants.”

[7] = tested on: Abutilon theophrasti; assay: as above; details: scored after about 3 weeks
From the text: as §1, with “control plants. Tables B1 to B16 below show the efficacies of selected compounds of the general formula (I) according to tables I.1 to I.60 on various harmful plants and an application rate corresponding to 320 g/ha or lower that were obtained by the aforementioned trial method.” for “control plants.”

[8] = tested on: Amaranthus retroflexus; assay: as above; details: scored after about 3 weeks
From the text: as §1, with “control plants. Tables B1 to B16 below show the efficacies of selected compounds of the general formula (I) according to tables I.1 to I.60 on various harmful plants and an application rate corresponding to 320 g/ha or lower that were obtained by the aforementioned trial method.” for “control plants.”

[9] = tested on: Echinochloa crus-galli; assay: as above; details: application rate 320 g/ha, scored after about 3 weeks
From the text: as §1, with “control plants. Tables B1 to B16 below show the efficacies of selected compounds of the general formula (I) according to tables I.1 to I.60 on various harmful plants and an application rate corresponding to 320 g/ha or lower that were obtained by the aforementioned trial method.” for “control plants.”

[10] = tested on: Viola tricolor; assay: as above; details: scored after about 3 weeks
From the text: as §1, with “control plants. Tables B1 to B16 below show the efficacies of selected compounds of the general formula (I) according to tables I.1 to I.60 on various harmful plants and an application rate corresponding to 320 g/ha or lower that were obtained by the aforementioned trial method.” for “control plants.”

[11] = tested on: Triticum aestivum; assay: Crop compatibility post-emergence (greenhouse pot trial)
Method in brief: as §4

[12] = tested on: Alopecurus myosuroides; assay: Herbicidal action post-emergence (greenhouse pot trial); details: application rate 20 g/ha, scored visually after about 3 weeks vs untreated controls
Method in brief: (§5)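 Percent herbicidal efficacy, assessed by eye about 3 weeks after spraying, compares treated with untreated plants. Treatment is a post-emergence spray at the one-leaf stage, using a WP or EC preparation plus 0.5% additive in 600 L/ha of water, at 80 g/ha or lower.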

[13] = tested on: Pharbitis purpurea; assay: as above; details: application rate 20 g/ha
Method in brief: as §5

[14] = tested on: Setaria viridis; assay: as above; details: application rate 20 g/ha, scored visually after about 3 weeks vs untreated controls
Method in brief: as §5

[15] = tested on: Polygonum convolvulus; assay: as above; details: application rate 20 g/ha, scored visually after about 3 weeks vs untreated controls
Method in brief: as §5

[16] = tested on: Matricaria inodora; assay: as above; details: application rate 20 g/ha, scored visually after about 3 weeks vs untreated controls
Method in brief: as §5

[17] = tested on: Abutilon theophrasti; assay: as above; details: application rate 20 g/ha, scored visually after about 3 weeks vs untreated controls
Method in brief: as §5

[18] = tested on: Amaranthus retroflexus; assay: as above; details: application rate 20 g/ha, scored visually after about 3 weeks vs untreated controls
Method in brief: as §5

[19] = tested on: Echinochloa crus-galli; assay: as above; details: application rate 20 g/ha, scored visually after about 3 weeks vs untreated controls
Method in brief: as §5

[20] = tested on: Viola tricolor; assay: as above; details: application rate 20 g/ha
Method in brief: as §5

[21] = tested on: Stellaria media; assay: as above; details: application rate 20 g/ha, scored visually after about 3 weeks vs untreated controls
Method in brief: as §5

[22] = tested on: Digitaria sanguinalis; assay: as above; details: application rate 20 g/ha
Method in brief: as §5

[23] = tested on: Veronica persica; assay: as above; details: application rate 20 g/ha
Method in brief: as §5

[24] = tested on: Zea mays; assay: Crop compatibility post-emergence (greenhouse pot trial); details: application rate 20 g/ha
Method in brief: as §4

[25] = tested on: Veronica persica; assay: Herbicidal action pre-emergence (greenhouse pot trial); details: application rate 80 g/ha
From the text: as §1, with “control plants. Tables B1 to B16 below show the efficacies of selected compounds of the general formula (I) according to tables I.1 to I.60 on various harmful plants and an application rate corresponding to 320 g/ha or lower that were obtained by the aforementioned trial method.” for “control plants.”

Row | Glycine max (Efficacy in %) [1] [%] | Zea mays (Efficacy in %) [2] [%] | Zea mays (Efficacy in %) [24] [%] | Triticum aestivum (Efficacy in %) ([11]; application rate 5 g/ha) [%] | Oryza sativa (Efficacy in %) ([3]; application rate 20 g/ha) [%] | Structure (SMILES) | Pharbitis purpurea (Efficacy in %) [13] [%] | Polygonum convolvulus (Efficacy in %) [15] [%] | Matricaria inodora (Efficacy in %) [16] [%] | Abutilon theophrasti (Efficacy in %) [17] [%] | Amaranthus retroflexus (Efficacy in %) [18] [%] | Viola tricolor (Efficacy in %) [20] [%] | Stellaria media (Efficacy in %) [21] [%] | Veronica persica (Efficacy in %) [23] [%] | Matricaria inodora (Efficacy in %) ([6]; application rate 80 g/ha) [%] | Abutilon theophrasti (Efficacy in %) ([7]; application rate 80 g/ha) [%] | Amaranthus retroflexus (Efficacy in %) ([8]; application rate 80 g/ha) [%] | Viola tricolor (Efficacy in %) ([10]; application rate 80 g/ha) [%] | further results
1 | 0 | 10 | – | – | – | COCCOCCOC(=O)C(C)Sc1cc(-n2c(=O)cc(C(F)(F)F)n(C)c2=O)c(F)cc1Cl (stereo not drawn) [I.1-23] | – | – | – | – | – | – | – | – | – | – | – | – | Oryza sativa (Efficacy in %) ([3]; application rate 5 g/ha): 10%; Pharbitis purpurea (Efficacy in %) [4]: 100%; Setaria viridis (Efficacy in %) [5]: 100%; Matricaria inodora (Efficacy in %) ([6]; application rate 320 g/ha): 100%; Abutilon theophrasti (Efficacy in %) ([7]; application rate 320 g/ha): 100%; Amaranthus retroflexus (Efficacy in %) ([8]; application rate 320 g/ha): 100%; Echinochloa crus-galli (Efficacy in %) [9]: 100%; Viola tricolor (Efficacy in %) ([10]; application rate 320 g/ha): 100%
2 | – | – | – | – | – | COC(C)COC(=O)C(C)Sc1cc(-n2c(=O)cc(C(F)(F)F)n(C)c2=O)c(F)cc1Cl (stereo not drawn) [I.1-51] | 100 | 100 | 100 | 100 | 100 | 100 | 80 | 100 | – | – | – | – | Triticum aestivum (Efficacy in %) ([11]; application rate 20 g/ha): 20%; Alopecurus myosuroides (Efficacy in %) [12]: 80%; Setaria viridis (Efficacy in %) [14]: 100%; Echinochloa crus-galli (Efficacy in %) [19]: 100%; Digitaria sanguinalis (Efficacy in %) [22]: 100%
3 | 20 | 0 | 20 | 10 | 10 | CC(Sc1cc(-n2c(=O)cc(C(F)(F)F)n(C)c2=O)c(F)cc1Cl)C(=O)OCC1CCCCO1 (stereo not drawn) [I.1-91] | 100 | 100 | 100 | 100 | 100 | 100 | – | 100 | 100 | 100 | 100 | 100 | Veronica persica (Efficacy in %) [25]: 100%
4 | 20 | 0 | 20 | 10 | 0 | CC(Sc1cc(-n2c(=O)cc(C(F)(F)F)n(C)c2=O)c(F)cc1Cl)C(=O)OC1CCSCC1 (stereo not drawn) [I.1-132] | 100 | 100 | 100 | 100 | 100 | 100 | 80 | 100 | 100 | 100 | 100 | 90 | –
